Source: patent publication US7625939B2, “Cyclopropyl-fused pyrrolidine derivatives as dipeptidyl peptidase IV inhibitors” (Probiodrug AG, priority 2005, dated 2009)

Assays:
Type in all cases: biochemical
Conditions in all cases: Gly-Pro-pNA 0.4 mM, HEPES pH 7.6, 30° C.
purified porcine DP IV = molecular target: T1, purified porcine DP IV (Sus scrofa, UniProt P22411); experiment: IC50 of DP IV inhibition, porcine kidney enzyme (Gly-Pro-pNA substrate)
T1 construct: purified porcine DP IV; from tissue; host or cells: porcine kidney
Experimental: (§1) 100 μl inhibitor stock solution were mixed with 100 μl buffer (HEPES pH 7.6) and 50 μl substrate (Gly-Pro-pNA, final concentration 0.4 mM) and preincubated at 30° C. Reaction was started by addition of 20 μl enzyme solution (either purified porcine DP IV, human recombinant DP IV, human recombinant DP II or human recombinant DP9). Formation of the product pNA was measured at 405 nm over 10 min using the HTS 7000Plus plate reader (Perkin Elmer) and slopes were calculated. The final inhibitor concentrations ranged between 1 mM and 30 nM.
(§2) For calculation of IC50-values GraFit 4.0.13 (Erithacus Software) was used.

human recombinant DP IV = human recombinant DP IV (Homo sapiens, UniProt P27487); experiment: IC50 of DP IV inhibition, human recombinant enzyme (Gly-Pro-pNA substrate)
Experimental: as §1, §2

human recombinant DP II = human recombinant DP II (Homo sapiens, UniProt Q9UHL4); experiment: IC50 of DP II inhibition, human recombinant enzyme (Gly-Pro-pNA substrate)
Experimental: as §1, §2

human recombinant DP9 = human recombinant DP9 (Homo sapiens, UniProt Q86TI2); experiment: IC50 of DP9 inhibition, human recombinant enzyme (Gly-Pro-pNA substrate)
Experimental: as §1, §2

human recombinant DP IV, sequence (P27487 whole entry): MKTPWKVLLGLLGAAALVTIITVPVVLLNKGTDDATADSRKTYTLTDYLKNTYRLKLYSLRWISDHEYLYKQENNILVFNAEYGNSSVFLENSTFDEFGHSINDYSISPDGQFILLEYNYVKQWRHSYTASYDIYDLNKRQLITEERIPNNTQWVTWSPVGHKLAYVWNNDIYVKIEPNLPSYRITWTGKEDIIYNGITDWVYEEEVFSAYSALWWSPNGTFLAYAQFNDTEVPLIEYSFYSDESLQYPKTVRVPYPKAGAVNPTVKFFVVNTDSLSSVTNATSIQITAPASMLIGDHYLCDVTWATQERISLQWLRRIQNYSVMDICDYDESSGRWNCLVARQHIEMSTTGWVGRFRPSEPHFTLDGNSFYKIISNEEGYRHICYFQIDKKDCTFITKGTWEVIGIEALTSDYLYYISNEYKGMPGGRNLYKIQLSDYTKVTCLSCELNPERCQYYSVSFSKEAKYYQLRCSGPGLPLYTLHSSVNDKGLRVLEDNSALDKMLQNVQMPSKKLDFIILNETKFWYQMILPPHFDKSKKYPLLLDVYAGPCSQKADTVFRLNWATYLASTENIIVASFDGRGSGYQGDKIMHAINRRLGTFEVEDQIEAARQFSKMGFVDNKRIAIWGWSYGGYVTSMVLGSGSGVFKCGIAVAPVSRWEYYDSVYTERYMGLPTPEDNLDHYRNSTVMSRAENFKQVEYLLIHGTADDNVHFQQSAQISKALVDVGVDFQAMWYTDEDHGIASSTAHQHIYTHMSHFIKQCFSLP
human recombinant DP9, sequence (Q86TI2 whole entry): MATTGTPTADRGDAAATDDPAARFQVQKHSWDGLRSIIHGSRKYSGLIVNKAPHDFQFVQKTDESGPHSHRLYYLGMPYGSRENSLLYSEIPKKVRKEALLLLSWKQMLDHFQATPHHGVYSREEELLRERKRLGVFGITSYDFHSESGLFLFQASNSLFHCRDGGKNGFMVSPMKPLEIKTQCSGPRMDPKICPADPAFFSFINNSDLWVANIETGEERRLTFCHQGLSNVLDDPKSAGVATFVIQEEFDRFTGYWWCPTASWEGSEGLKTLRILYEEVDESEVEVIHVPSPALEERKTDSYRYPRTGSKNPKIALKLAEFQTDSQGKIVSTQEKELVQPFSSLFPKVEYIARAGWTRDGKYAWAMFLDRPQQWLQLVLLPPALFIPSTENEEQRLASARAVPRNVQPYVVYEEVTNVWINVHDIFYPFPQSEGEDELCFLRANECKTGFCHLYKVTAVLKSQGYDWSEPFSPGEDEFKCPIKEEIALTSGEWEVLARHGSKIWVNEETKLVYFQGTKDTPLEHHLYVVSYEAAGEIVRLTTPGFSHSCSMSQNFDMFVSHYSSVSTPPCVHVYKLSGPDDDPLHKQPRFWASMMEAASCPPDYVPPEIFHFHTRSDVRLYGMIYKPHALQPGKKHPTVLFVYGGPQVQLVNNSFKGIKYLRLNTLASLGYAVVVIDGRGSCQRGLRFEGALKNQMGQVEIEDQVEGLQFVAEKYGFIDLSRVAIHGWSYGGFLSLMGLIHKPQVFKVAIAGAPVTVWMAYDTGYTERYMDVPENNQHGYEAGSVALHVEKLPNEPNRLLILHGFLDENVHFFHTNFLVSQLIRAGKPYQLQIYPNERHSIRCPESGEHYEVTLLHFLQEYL
T1 sequence (P22411 whole entry): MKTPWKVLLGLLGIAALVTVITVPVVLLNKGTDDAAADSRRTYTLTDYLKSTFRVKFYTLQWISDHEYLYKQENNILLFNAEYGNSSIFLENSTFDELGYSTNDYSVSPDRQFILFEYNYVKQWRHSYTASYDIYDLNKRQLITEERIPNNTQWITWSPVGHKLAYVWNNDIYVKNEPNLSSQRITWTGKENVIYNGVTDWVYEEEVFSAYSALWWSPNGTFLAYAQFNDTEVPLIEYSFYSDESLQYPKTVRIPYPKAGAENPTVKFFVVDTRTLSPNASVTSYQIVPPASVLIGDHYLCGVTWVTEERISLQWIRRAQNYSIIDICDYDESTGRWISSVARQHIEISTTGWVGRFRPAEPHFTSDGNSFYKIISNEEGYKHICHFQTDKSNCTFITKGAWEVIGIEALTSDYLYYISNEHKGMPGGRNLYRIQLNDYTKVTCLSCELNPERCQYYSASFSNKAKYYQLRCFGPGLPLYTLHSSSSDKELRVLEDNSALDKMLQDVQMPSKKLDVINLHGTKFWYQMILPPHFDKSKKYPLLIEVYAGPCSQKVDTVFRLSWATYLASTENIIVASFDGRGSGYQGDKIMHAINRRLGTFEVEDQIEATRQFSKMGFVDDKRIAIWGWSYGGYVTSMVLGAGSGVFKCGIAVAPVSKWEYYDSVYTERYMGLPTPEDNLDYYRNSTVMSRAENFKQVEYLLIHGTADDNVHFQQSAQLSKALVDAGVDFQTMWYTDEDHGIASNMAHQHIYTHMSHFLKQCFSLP

IC50 (purified porcine DP IV) [nM] | IC50 (human recombinant DP IV) [nM] | IC50 (human recombinant DP II) [nM] | IC50 (human recombinant DP9) [nM] | SMILES
3.53 | 31.6 | 3820 | 15.9 | CC(C)[C@H](N)C(=O)N1CC2CC2C1B(O)O (stereo partly drawn) [Example 1]
10.2 | 75 | 21100 | 18.4 | CC(C)(C)[C@H](N)C(=O)N1CC2CC2C1B(O)O (stereo partly drawn) [Example 2]
9.46 | 45.1 | 1470 | 10.8 | CC[C@H](C)[C@H](N)C(=O)N1CC2CC2C1B(O)O (stereo partly drawn) [Example 3]
